According to article PMC11079024, “Identification of a family of species-selective complex I inhibitors as potential anthelmintics” (Nature Communications, 2024):
Values joined by “and” are separate entries in the source; they are usually repeats but may differ in a detail not shown here. Equal values may be shown once. Read-outs that look alike come from different tables or passages of the source.

Legend:
[1] = system: C. elegans complex IV (cytochrome C oxidase); test: In vitro complex IV activity assay, C. elegans mitochondria; type: biochemical, Caenorhabditis elegans
How it was run: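 Cytochrome C oxidase activity read spectrophotometrically at 550 nm (30 s intervals, 15 min) as oxidation of freshly DTT-reduced CytC. Mitochondria (0.2 mg/mL) came from adult worms of six C. elegans strains grown at 20 °C. Rates were taken from initial linear phase and normalised to solvent-control wells.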

[2] = system: C. elegans complex III (decylubiquinol-cytochrome C reductase); test: In vitro complex III activity assay, C. elegans mitochondria; type: biochemical, Caenorhabditis elegans
How it was run: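 Mitochondria were isolated from adult C. elegans by bead-beating and differential centrifugation, then used at 0.2 mg/mL protein. Antimycin A-sensitive complex III activity was followed as decylubiquinol-driven cytochrome C reduction at 550 nm every 30 s for 15 min. Initial linear slopes were expressed as percent of solvent control.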

[3] = target: C. elegans complex II (succinate dehydrogenase) (Caenorhabditis elegans, UniProt O62215+P41956+Q09545); test: In vitro complex II activity assay, C. elegans mitochondria; type: biochemical
How it was run: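 Mitochondria isolated from adult C. elegans were diluted to 0.2 mg/mL protein and assayed for complex II by the DCIP-coupled method. A600 was read every 30 s over 15 min, with initial linear slope expressed as percent of solvent control. Screening was at 100 μM (≥3 biological replicates), followed by dose-response.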

[4] = 100 µM compound, relative to solvent control, mean (SEM)
[5] = 100 μM of NPD compound, C. elegans mitochondria, individual biological replicates
[6] = 100 μM of NPD compound, C. elegans mitochondria, mean of four biological replicates

Sequence of C. elegans complex II (succinate dehydrogenase) (P41956 30-182): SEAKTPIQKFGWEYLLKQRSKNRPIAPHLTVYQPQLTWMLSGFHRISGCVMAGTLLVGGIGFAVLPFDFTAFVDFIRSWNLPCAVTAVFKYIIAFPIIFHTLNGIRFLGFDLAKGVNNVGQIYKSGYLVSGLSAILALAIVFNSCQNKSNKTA
Sequence of C. elegans complex II (succinate dehydrogenase) (Q09545 22-298): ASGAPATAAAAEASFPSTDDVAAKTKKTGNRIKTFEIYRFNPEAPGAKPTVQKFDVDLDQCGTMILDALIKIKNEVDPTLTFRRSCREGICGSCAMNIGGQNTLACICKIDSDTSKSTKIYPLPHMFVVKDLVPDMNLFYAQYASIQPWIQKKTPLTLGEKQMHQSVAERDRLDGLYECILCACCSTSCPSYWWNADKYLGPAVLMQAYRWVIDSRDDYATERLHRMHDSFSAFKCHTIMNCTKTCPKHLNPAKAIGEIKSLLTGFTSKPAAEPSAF
Sequence of C. elegans complex II (succinate dehydrogenase) (Q09508 32-646, further chain): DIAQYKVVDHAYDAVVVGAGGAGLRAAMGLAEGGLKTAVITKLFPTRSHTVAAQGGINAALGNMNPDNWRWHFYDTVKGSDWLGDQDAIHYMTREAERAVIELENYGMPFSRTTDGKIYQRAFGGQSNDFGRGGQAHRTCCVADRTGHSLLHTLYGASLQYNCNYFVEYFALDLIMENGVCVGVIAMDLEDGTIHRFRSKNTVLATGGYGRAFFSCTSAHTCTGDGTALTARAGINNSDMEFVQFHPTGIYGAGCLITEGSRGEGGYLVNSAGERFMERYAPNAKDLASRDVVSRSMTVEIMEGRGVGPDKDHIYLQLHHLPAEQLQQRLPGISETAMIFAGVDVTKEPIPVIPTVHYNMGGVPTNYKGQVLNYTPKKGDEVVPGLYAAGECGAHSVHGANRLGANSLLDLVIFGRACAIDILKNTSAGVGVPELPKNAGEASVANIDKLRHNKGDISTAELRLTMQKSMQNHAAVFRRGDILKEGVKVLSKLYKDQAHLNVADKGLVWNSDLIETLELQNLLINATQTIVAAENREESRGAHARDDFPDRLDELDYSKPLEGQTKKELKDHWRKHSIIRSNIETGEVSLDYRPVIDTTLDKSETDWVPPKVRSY
Sequence of C. elegans complex II (succinate dehydrogenase) (O62215 31-145): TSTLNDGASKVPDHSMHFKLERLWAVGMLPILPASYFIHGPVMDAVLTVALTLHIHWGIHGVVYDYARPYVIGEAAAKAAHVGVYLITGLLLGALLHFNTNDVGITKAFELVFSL

COc1cc2c(cc1OC)C(c1ccc(-c3ccc(Cl)c(Cl)c3)o1)=NCC2 [NPD3577]
% Activity Complex IV [1, 4]: 81.06 (2.34) %
Percent in vitro activity, Complex IV (single replicate Rep1-Rep4) [1, 5]: 78.287% and 81.122% and 71.227% and 93.621%
Percent in vitro activity, Complex IV (Mean) [1, 6]: 81.064%
% Activity Complex III [2, 4]: 65.54 (2.59) %
Percent in vitro activity, Complex III (single replicate Rep1-Rep4) [2, 5]: 80.555% and 63.410% and 61.250% and 56.942%
Percent in vitro activity, Complex III (Mean) [2, 6]: 65.539%
activity at 100 µM ([3]; 100 µM compound, relative to solvent control, mean (SEM), read-out: % Activity Complex II): 115%
Percent in vitro activity, Complex II (single replicate Rep1-Rep4) ([3]; 100 μM of NPD compound, C. elegans mitochondria, individual biological replicates, 100 µM): 133.014% and 126.621% and 103.513% and 97.309%
activity at 100 µM ([3]; 100 μM of NPD compound, C. elegans mitochondria, mean of four biological replicates, read-out: Percent in vitro activity, Complex II (Mean)): 115%
